From US5171837A, “Peptide capable of binding interleukin 6 and an adsorbent comprising the peptide immobilized on a carrier” (Kuraray Co., Ltd., priority 1989, dated 1992)
Non-standard residues stand in square brackets, D forms with d. Residues, ends and D or L forms follow the SMILES beside them. No end group written: not given here. *: point of attachment. X1 = NCCCCCCCCCCCCCCCCCC(=O)*; 12Ado = NCCCCCCCCCCCC(=O)O

target: T1, IL-6 (Homo sapiens, UniProt P05231); assay: Activity for inhibition of binding of IL-6 to receptor by peptide (IL-6 receptor expression cells, FITC labeled anti-IL-6 antibody); settings: 5 μg of the peptide, 50 ng of IL-6, 10^5 IL-6 receptor expression cells, 4° C for one hour
T1 construct: purchased Genzyme Corp
T1 sequence (P05231 30-212): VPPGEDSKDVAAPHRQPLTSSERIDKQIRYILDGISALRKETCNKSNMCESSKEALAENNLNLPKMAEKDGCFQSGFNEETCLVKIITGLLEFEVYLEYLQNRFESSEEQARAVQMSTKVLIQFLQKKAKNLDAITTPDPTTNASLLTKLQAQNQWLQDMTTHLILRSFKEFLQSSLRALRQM
Experimental: A human lymphocyte fraction was obtained from human peripheral blood with Ficoll-Paque (manufactured by Pharmacia-LKB). The fraction was reacted with a cultured supernatant of Epstein-Barr Virus producing cell strain B958 to transform the human lymphocytes to obtain IL-6 receptor expression cells.
1 mg of anti-human IL-6 antibody [Rabbit Anti-human Interleukin-6, manufactured by Genzyme Corp.] was dissolved in a 0.05M carbonate buffer solution (pH: 9.5) and to the resulting solution was added 10 μg of FITC [Fluorescein isothiocyanate, manufactured by Sigma Corp.]. The mixture was stirred at 4° C. overnight. The resulting solution was passed through PD-10 column (manufactured by Pharmacia-LKB) to obtain FITC labeled anti-IL-6 antibody as a firstly eluted fraction.
10^5 IL-6 receptor expression cells were suspended in 0.5 % BSA (bovine serum albumin, manufactured by Sigma Corp.)-PBS (a phosphate buffer solution containing 0.15 M sodium chloride, pH 7.4) and to the resulting suspension were added 50 ng of IL-6 (Human recombinant interleukin-6, manufactured by Genzyme Corp.) and 5 μg of the peptide obtained in any one of Examples 1 to 96. The suspension was allowed to stand at 4° C for one hour. Then, after washing the cells centrifugally with 0.5% BSA-PBS three times (1200 rpm, 5 min.), 1 μg of FITC labeled anti-IL-6 antibody was added and the mixture was allowed to stand at 4° C. for 30 minutes. After washing with 0.5% BSA-PBS three times, the intensity of fluorescence of the cells was determined. The binding inhibition activity of the peptide of each Example was evaluated, by taking the value obtained without addition of the peptide as a control and taking the value- obtained without addition of IL-6 as a blank, according to the following formula: [formula]

Row | Molecule | Binding inhibition activity (%)
1 | DDDDDRKFQNSPAEDFQEPCQYSQESAAG-NH2 [Example 24] | 55%
2 | DDDDDQALTTNKDDDNILFRDSAAAG-NH2 [Example 32] | 44%
3 | EEEDPHSWNSSFYRLRFELRYRAERSKKG-NH2 [Example 79] | 62%
4 | CC(C)C[C@H](NC(=O)[C@H](CCC(=O)O)NC(=O)[C@H](Cc1ccccc1)NC(=O)[C@H](CCCNC(=N)N)NC(=O)[C@H](CC(C)C)NC(=O)[C@H](CCCNC(=N)N)NC(=O)[C@H](Cc1ccc(O)cc1)NC(=O)[C@H](Cc1ccccc1)NC(=O)[C@H](CO)NC(=O)[C@H](CO)NC(=O)[C@H](CC(N)=O)NC(=O)[C@H](Cc1c[nH]c2ccccc12)NC(=O)[C@H](CO)NC(=O)[C@H](Cc1c[nH]cn1)NC(=O)[C@@H]1CCCN1C(=O)[C@H](CC(=O)O)NC(=O)[C@H](CCC(N)=O)NC(=O)[C@H](Cc1c[nH]c2ccccc12)NC(=O)CCCCCCCCCCCCCCCCCN)C(=O)N[C@@H](CCCNC(=N)N)C(=O)N[C@@H](Cc1ccc(O)cc1)C(=O)N[C@@H](CCCNC(=N)N)C(=O)N[C@@H](C)C(=O)N[C@@H](CCC(=O)O)C(=O)N[C@@H](CCCNC(=N)N)C(=O)N[C@@H](CO)C(=O)N[C@@H](CCCCN)C(=O)NCC(=O)O [Example 92] (X1-WQDPHSWNSSFYRLRFELRYRAERSKG-OH) | 62%
5 | QALTTNKDDDNILFRDSAK [Example 25] | 45%
6 | DDDDDDPHSWNSSFYRLRFELRYRAERSKAAG-NH2 [Example 80] | 59%
7 | H-Thr-Ser-Leu-Pro-Gly-Ser-Val-Thr-Leu-Thr-Cys-Pro-Gly-Val-Glu-Pro-Glu-Asp- Lys-OH (H-TSLPGSVTLTCPGVEPEDK-OH) [Example 1] | 38%
8 | HSWNSSFYRLRFELRYRAERSK [Example 61] | 45%
9 | KWNSSFYRLRFELRYRAERSKD-NH2 [Example 38] | 56%
10 | KPHSWNSSFYRLRFELRYRAERSKD-NH2 [Example 70] | 59%
11 | DDDDDQDPHSWNSSFYRLRFELRYRAERSKAAG-NH2 [Example 88] | 66%
12 | DDDDDWNSSFYRLRFELRYRAERSKAAG-NH2 [Example 40] | 37%
13 | C[C@H](NC(=O)[C@@H]1CCCN1C(=O)[C@H](CO)NC(=O)[C@H](CC(N)=O)NC(=O)[C@H](CCC(N)=O)NC(=O)[C@H](Cc1ccccc1)NC(=O)[C@H](CCCCN)NC(=O)[C@H](CCCNC(=N)N)NC(=O)CCCCCCCCCCCCCCCCCN)C(=O)N[C@@H](CCC(=O)O)C(=O)N[C@@H](CC(=O)O)C(=O)N[C@@H](Cc1ccccc1)C(=O)N[C@@H](CCC(N)=O)C(=O)N[C@@H](CCC(=O)O)C(=O)N1CCC[C@H]1C(=O)N[C@@H](CS)C(=O)N[C@@H](CCC(N)=O)C(=O)N[C@@H](Cc1ccc(O)cc1)C(=O)N[C@@H](CO)C(=O)N[C@@H](CCC(N)=O)C(=O)N[C@@H](CCC(=O)O)C(=O)N[C@@H](CO)C(=O)NCC(=O)O [Example 20] (X1-RKFQNSPAEDFQEPCQYSQESG-OH) | 65%
14 | EEENPRWLSVTWQDPHSKG-NH2 [Example 55] | 28%
15 | DPHSWNSSFYRLRFELRYRAERSKK [Example 73] | 71%
16 | WNSSFYRLRFELRYRAERSKK [Example 33] | 58%
17 | CC(C)C[C@H](NC(=O)[C@H](CCC(=O)O)NC(=O)[C@H](Cc1ccccc1)NC(=O)[C@H](CCCNC(=N)N)NC(=O)[C@H](CC(C)C)NC(=O)[C@H](CCCNC(=N)N)NC(=O)[C@H](Cc1ccc(O)cc1)NC(=O)[C@H](Cc1ccccc1)NC(=O)[C@H](CO)NC(=O)[C@H](CO)NC(=O)[C@H](CC(N)=O)NC(=O)[C@H](Cc1c[nH]c2ccccc12)NC(=O)CCCCCCCCCCCN)C(=O)N[C@@H](CCCNC(=N)N)C(=O)N[C@@H](Cc1ccc(O)cc1)C(=O)N[C@@H](CCCNC(=N)N)C(=O)N[C@@H](C)C(=O)N[C@@H](CCC(=O)O)C(=O)N[C@@H](CCCNC(=N)N)C(=O)N[C@@H](CO)C(=O)N[C@@H](CCCCN)C(=O)N[C@@H](CCC(=O)O)C(=O)N[C@@H](CCC(=O)O)C(=O)N[C@@H](CCC(=O)O)C(=O)N[C@@H](CCC(=O)O)C(=O)N[C@@H](CCC(=O)O)C(=O)O [Example 35] (H-[12Ado]WNSSFYRLRFELRYRAERSKEEEEE-OH) | 60%
18 | WQDPHSWNSSFYRLRFELRYRAERSKK [Example 89] | 68%
19 | KRKFQNSPAEDFQEPCQYSQESD-NH2 [Example 22] | 58%
20 | DPHSWNSSFYRLRFELRYRAERSK [Example 77] | 58%
21 | QALTTNKDDDNILFRDSA [Example 29] | 41%
22 | CC(C)C[C@H](NC(=O)[C@H](CCC(=O)O)NC(=O)[C@H](Cc1ccccc1)NC(=O)[C@H](CCCNC(=N)N)NC(=O)[C@H](CC(C)C)NC(=O)[C@H](CCCNC(=N)N)NC(=O)[C@H](Cc1ccc(O)cc1)NC(=O)[C@H](Cc1ccccc1)NC(=O)[C@H](CO)NC(=O)[C@H](CO)NC(=O)[C@H](CC(N)=O)NC(=O)[C@H](Cc1c[nH]c2ccccc12)NC(=O)[C@H](CO)NC(=O)[C@H](Cc1c[nH]cn1)NC(=O)CCCCCCCCCCCN)C(=O)N[C@@H](CCCNC(=N)N)C(=O)N[C@@H](Cc1ccc(O)cc1)C(=O)N[C@@H](CCCNC(=N)N)C(=O)N[C@@H](C)C(=O)N[C@@H](CCC(=O)O)C(=O)N[C@@H](CCCNC(=N)N)C(=O)N[C@@H](CO)C(=O)N[C@@H](CCCCN)C(=O)N[C@@H](CCC(=O)O)C(=O)N[C@@H](CCC(=O)O)C(=O)N[C@@H](CCC(=O)O)C(=O)N[C@@H](CCC(=O)O)C(=O)N[C@@H](CCC(=O)O)C(=O)O [Example 59] (H-[12Ado]HSWNSSFYRLRFELRYRAERSKEEEEE-OH) | 60%
23 | KQDPHSWNSSFYRLRFELRYRAERSKD-NH2 [Example 86] | 58%
24 | EEEWQDPHSWNSSFYRLRFELRYRAERSKKG-NH2 [Example 95] | 65%
25 | KWQDPHSWNSSFYRLRFELRYRAERSKD-NH2 [Example 94] | 63%
26 | KNPRWLSVTWQDPHSD-NH2 [Example 54] | 28%
27 | QDPHSWNSSFYRLRFELRYRAERSKK [Example 81] | 76%
28 | CC(C)C[C@H](NC(=O)[C@H](CCC(=O)O)NC(=O)[C@H](Cc1ccccc1)NC(=O)[C@H](CCCNC(=N)N)NC(=O)[C@H](CC(C)C)NC(=O)[C@H](CCCNC(=N)N)NC(=O)[C@H](Cc1ccc(O)cc1)NC(=O)[C@H](Cc1ccccc1)NC(=O)[C@H](CO)NC(=O)[C@H](CO)NC(=O)[C@H](CC(N)=O)NC(=O)[C@H](Cc1c[nH]c2ccccc12)NC(=O)CCCCCCCCCCCCCCCCCN)C(=O)N[C@@H](CCCNC(=N)N)C(=O)N[C@@H](Cc1ccc(O)cc1)C(=O)N[C@@H](CCCNC(=N)N)C(=O)N[C@@H](C)C(=O)N[C@@H](CCC(=O)O)C(=O)N[C@@H](CCCNC(=N)N)C(=O)N[C@@H](CO)C(=O)N[C@@H](CCCCN)C(=O)NCC(=O)O [Example 36] (X1-WNSSFYRLRFELRYRAERSKG-OH) | 62%
29 | KKDPHSWNSSFYRLRFELRYRAERSK [Example 74] | 70%
